The values that follow come from publication PMC3530532, “Corticosteroid-Binding Globulin: Structure-Function Implications from Species Differences” (PLoS ONE, 2012).

For orientation: Kd means a measure of binding affinity in units of concentration. Higher therefore signals weaker binding.

This test concerns the target T1, Cleaved rat CBG-RCL1 (Rattus norvegicus, UniProt P31211, A357V/P358T).
T1 construct: residues 5 to 374 of rat CBG (P31211); GST (N, cleaved yes); made in house; host or cells: E. coli BL21 Star (DE3)
T1 sequence (P31211 27-396 A357V/P358T limits assumed): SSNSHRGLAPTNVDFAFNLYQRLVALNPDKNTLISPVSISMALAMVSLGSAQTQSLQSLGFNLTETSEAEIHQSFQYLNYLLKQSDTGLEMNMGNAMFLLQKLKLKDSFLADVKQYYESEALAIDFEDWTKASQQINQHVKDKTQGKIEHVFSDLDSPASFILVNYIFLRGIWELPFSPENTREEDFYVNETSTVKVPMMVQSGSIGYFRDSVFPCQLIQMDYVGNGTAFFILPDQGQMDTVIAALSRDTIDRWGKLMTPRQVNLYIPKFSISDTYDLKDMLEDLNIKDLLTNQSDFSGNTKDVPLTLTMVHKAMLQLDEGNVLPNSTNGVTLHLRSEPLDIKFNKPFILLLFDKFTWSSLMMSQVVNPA
Kind of test: Isothermal titration calorimetry, steroid titrated to neutrophil elastase-cleaved rat CBG-RCL1. In kind it is binding. On the procedure:
Cleavage of the RCL in human and rat CBG mutants was accomplished with 100 mU human neutrophil elastase (Sigma-Aldrich) per mg purified CBG at 30°C and monitored by SDS-PAGE. The cleavage reaction was stopped with AEBSF.
The protein samples were dialyzed against ITC buffer (20 mM potassium phosphate, 50 mM NaCl, pH 7.4) and titrated with steroids in a VP-ITC microcalorimeter (Microcal, Piscataway). All solutions were filtered (0.2 µm filter pore size) and degassed for 30 min prior to the titration experiments. The sample cell was filled with protein solution containing 15 µM rat CBG or 20 µM human CBG and titrated with steroid solutions containing 150 µM and 200 µM ligand, respectively. The titrations consisted of an initial injection of 2 µL followed by 25 consecutive injections of 10 µL ligand solution at 25°C. A spacing of 240 sec between the injections was used to allow a return to the baseline. Data points from the initial injection, which are generally affected by diffusion during the initial equilibration period after experiment setup, were discarded prior to data analysis. […] The binding curve was generated by plotting the heats of injections against the ratio of ligand to protein in the cell. Integrated heat data were analyzed using nonlinear regression fit with a one-site-binding model in the Origin-7™ software provided with the VP-ITC. Changes in the free energy and entropy can be calculated using the equation: ΔG° = −RTlnK = ΔH°−TΔS°. In this equation ΔG° is the change in Gibbs free energy, R the universal gas constant, T the temperature, and K the association constant. The change in enthalpy is denoted as ΔH°, and ΔS° is the change in entropy under standard conditions. The data shown in Table 2 were obtained from single titrations of each complex.

The mark [1] stands for this setting: ITC, 25°C, cleaved rat CBG-RCL1.

Regarding `C[C@]12CCC(=O)C=C1CC[C@@H]1[C@@H]2[C@@H](O)C[C@@]2(C)[C@H]1CC[C@]2(O)C(=O)CO` [Hydrocortisone], under setting [1], the “TΔS°” value is -30.43 kcal/mol, the “ΔG°” value was -9.2 kcal/mol and the “ΔH°” value is -39.63 kcal/mol. This compound yielded a Kd (ITC, 25°C, single titration, cleaved rat CBG-RCL1) of 209 ± 20 nM. The “decrease in binding affinity upon RCL cleavage” value (rat CBG, uncleaved vs cleaved rat CBG-RCL1, ITC 25°C) is “about 2 fold”.
